Assays:
[1] = cited from earlier work
normal skin = assay: Human Repeat Insult Patch Test (RIPT); type: in vivo; conditions: RIPT positive control
Procedure: The objective of the study was to determine irritation and sensitization potential of the composition as a test material after repeated application to skin. Contact sensitization was measured by treatment emergent adverse events (TEAE5), reaction grade and investigator assessment of irritation and sensitization. An informed consent was obtained from each volunteer prior to initiating the study. The consent form described reasons for the study, possible adverse effects, associated risks and potential benefits of the treatment and their limits of liability. […] The present composition was tested under occlusive conditions and placed on an 8-millimeter aluminum Finn Chamber (Epitest Ltd. Oy, Tuusula, Finland) supported on Scanpor Tape (Norgesplaster A/S, Kristiansand, Norway). Alternatively, an 8-mm filter paper coated aluminum Finn Chamber AQUA can be supported on a thin flexible transparent polyurethane rectangular film coated on one side with a medical grade acrylic adhesive, consistent with adhesive used in state-of-the-art hypoallergenic surgical tapes or a 7 mm IQ-ULTRA closed cell system. Such a closed cell system is made of additive-free polyethylene plastic foam with a filter paper incorporated (supplied in units of 10 chambers on a hypoallergenic non-woven adhesive tape having a width of 52 mm and a length of 118 mm) or other equivalents. […] Test materials to be tested in an open patch were applied and rubbed directly onto the back of the subject. Approximately 0.02-0.05 mL (in case of liquids) and/or 0.02-0.05 gm (in case of solids) of the test material was used for the study. Liquid test material was dispensed on a 7.5 mm paper disk, which fit in the Finn Chamber. The following procedure was applied: • 1. Subjects were requested to bathe or wash as usual before arrival at the facility. • 2. […] Patches remained in place for 48 hours after the first application. • 4. Subjects were instructed not to remove the patches prior to their 48 hour scheduled visit. • 5. Thereafter, subjects were instructed to remove patches 24 hours after application for the remainder of the study. • 6. […] Prior to each reapplication, the test sites evaluated by trained laboratory personnel. • 8. Following a 10-14 day rest period a retest/challenge dose was applied once to a previously unexposed test site. Test sites were evaluated by trained laboratory personnel 48 and 96 hours after application. In the event of an adverse reaction, the area of erythema and edema were to be measured. Edema is estimated by the evaluation of the skin with respect to the contour of the unaffected normal skin. Subjects were instructed to report any delayed reactions that might occur after the final reading. […] Site discontinued • Dc: Subject discontinued voluntarily • DcI: Subject discontinued per Investigator

| Structure (SMILES) | solubility in oil and alcohol [1] | subjects with a Grade 1 reaction (normal skin; Grade 1: erythema) | subjects with a Grade 2 reaction (normal skin; Grade 2: erythema and induration) | subjects with a Grade 3 reaction (normal skin; Grade 3: erythema, induration and vesicles) | subjects with a Grade 4 reaction (normal skin; Grade 4: erythema, induration and bullae) | subjects with a delayed Grade 2 reaction (normal skin; delayed reaction) |
| --- | --- | --- | --- | --- | --- | --- |
| CC(C)C1CC[C@@H](C)C[C@H]1O (single isomer, unassigned; (-)) [Menthol crystals, (−)-menthol] | soluble in both oil and alcohol | – | – | – | – | – |
| CCCCCCCCCCCCOS(=O)(=O)[O-].[Na+] [2.0% Sodium Lauryl Sulfate Solution, Sodium Lauryl Sulfate] | – | 12 subjects | 4 subjects | 1 subjects | 3 subjects | 1 subjects |
